Results reported in ChEMBL document CHEMBL4007467, “Effects of 6-paradol, an unsaturated ketone from gingers, on cytochrome P450-mediated drug metabolism” (Bioorg Med Chem Lett, 2017).

What was measured:
Assay type in all cases: ADME
CYP3A4 [1] = target: T1, CYP3A4 (Homo sapiens, UniProt P08684); assay: Inhibition of CYP3A4 in human liver microsomes assessed as enzyme-mediated metabolite formation at 10 uM using testosterone as substrate incubated for 5 mins followed by NADPH addition measured after 30 mins by LC-MS/MS analysis relative to control; parameters: scale not given: the % may be the effect or the level left; conditions: probe testosterone, read-out: Activity
Cytochrome P450 1A2 = target: T2, Cytochrome P450 1A2 (Homo sapiens, UniProt P05177); assay: Inhibition of CYP1A2 in human liver microsomes assessed as enzyme-mediated metabolite formation using phenacetin as substrate incubated for 5 mins followed by NADPH addition measured after 30 mins by LC-MS/MS analysis
T2 sequence (P05177 whole entry): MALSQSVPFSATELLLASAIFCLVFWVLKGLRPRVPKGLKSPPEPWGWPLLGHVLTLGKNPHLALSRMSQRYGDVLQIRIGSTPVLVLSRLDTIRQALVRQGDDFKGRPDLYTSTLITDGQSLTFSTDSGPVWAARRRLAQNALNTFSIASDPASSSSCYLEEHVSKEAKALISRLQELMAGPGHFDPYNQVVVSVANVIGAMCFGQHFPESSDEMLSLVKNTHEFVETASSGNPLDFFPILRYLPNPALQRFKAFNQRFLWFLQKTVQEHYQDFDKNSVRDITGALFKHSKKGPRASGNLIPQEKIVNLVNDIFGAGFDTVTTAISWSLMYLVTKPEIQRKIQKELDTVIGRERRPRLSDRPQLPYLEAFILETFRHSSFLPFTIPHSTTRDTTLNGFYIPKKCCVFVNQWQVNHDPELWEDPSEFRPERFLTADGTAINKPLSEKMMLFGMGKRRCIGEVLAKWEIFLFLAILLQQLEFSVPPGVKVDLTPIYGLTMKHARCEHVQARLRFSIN

CYP3A4 [2] = target: T1, CYP3A4; assay: Inhibition of CYP3A4 in human liver microsomes assessed as enzyme-mediated metabolite formation at 0.3 uM using midazolam as substrate incubated for 5 mins followed by NADPH addition measured after 30 mins by LC-MS/MS analysis relative to control; parameters: scale not given: the % may be the effect or the level left; conditions: probe midazolam, read-out: Activity
CYP1A2 = target: T3, CYP1A2 (Homo sapiens, UniProt P05177); assay: Inhibition of CYP1A2 in human liver microsomes assessed as enzyme-mediated metabolite formation at 0.3 uM using phenacetin as substrate preincubated for 20 mins followed by substrate addition measured after 30 mins in presence of NADPH by LC-MS/MS analysis relative to control; parameters: scale not given: the % may be the effect or the level left; conditions: probe phenacetin, read-out: Activity
T3 sequence (P05177 whole entry): T2 sequence (P05177 whole entry)

CYP2A6 [3] = target: T4, CYP2A6 (Homo sapiens, UniProt P11509); assay: Inhibition of CYP2A6 in human liver microsomes assessed as enzyme-mediated metabolite formation at 10 uM using coumarin as substrate incubated for 5 mins followed by NADPH addition measured after 30 mins by LC-MS/MS analysis relative to control; parameters: scale not given: the % may be the effect or the level left; conditions: probe coumarin, read-out: Activity
T4 sequence (P11509 whole entry): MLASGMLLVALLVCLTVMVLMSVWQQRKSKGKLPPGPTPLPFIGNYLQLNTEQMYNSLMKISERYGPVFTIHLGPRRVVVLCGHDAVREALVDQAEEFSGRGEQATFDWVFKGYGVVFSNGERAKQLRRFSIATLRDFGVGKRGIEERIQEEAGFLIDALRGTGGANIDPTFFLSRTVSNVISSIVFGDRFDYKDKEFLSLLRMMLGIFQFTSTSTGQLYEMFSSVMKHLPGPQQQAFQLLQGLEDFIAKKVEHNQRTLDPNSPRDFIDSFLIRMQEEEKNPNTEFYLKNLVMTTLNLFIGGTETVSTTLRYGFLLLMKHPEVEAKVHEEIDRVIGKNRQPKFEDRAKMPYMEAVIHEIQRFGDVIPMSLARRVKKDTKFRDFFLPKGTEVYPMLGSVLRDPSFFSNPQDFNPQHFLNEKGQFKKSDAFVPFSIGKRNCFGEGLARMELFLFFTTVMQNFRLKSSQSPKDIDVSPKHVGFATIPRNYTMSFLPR

CYP2B6 [4] = target: T5, CYP2B6 (Homo sapiens, UniProt P20813); assay: Inhibition of CYP2B6 in human liver microsomes assessed as enzyme-mediated metabolite formation at 1 uM using bupropion as substrate preincubated for 20 mins followed by substrate addition measured after 30 mins in presence of NADPH by LC-MS/MS analysis relative to control; parameters: scale not given: the % may be the effect or the level left; conditions: probe bupropion, read-out: Activity
T5 sequence (P20813 whole entry): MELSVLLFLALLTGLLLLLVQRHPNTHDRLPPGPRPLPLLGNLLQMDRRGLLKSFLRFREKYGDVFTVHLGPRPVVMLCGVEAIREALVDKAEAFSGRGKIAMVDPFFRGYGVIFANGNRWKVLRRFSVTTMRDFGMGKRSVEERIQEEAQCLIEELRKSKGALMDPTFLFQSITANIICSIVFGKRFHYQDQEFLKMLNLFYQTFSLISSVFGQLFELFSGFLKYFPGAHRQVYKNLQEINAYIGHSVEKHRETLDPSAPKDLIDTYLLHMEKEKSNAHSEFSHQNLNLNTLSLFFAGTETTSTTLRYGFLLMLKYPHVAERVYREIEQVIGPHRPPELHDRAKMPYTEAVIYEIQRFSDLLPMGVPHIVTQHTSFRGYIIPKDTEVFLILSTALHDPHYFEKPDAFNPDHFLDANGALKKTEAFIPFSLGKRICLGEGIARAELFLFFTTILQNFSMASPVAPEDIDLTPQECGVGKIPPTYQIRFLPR

CYP3A4 [5] = target: T1, CYP3A4; assay: Inhibition of CYP3A4 in human liver microsomes assessed as enzyme-mediated metabolite formation at 0.1 uM using testosterone as substrate incubated for 5 mins followed by NADPH addition measured after 30 mins by LC-MS/MS analysis relative to control; parameters: scale not given: the % may be the effect or the level left; conditions: probe testosterone, read-out: Activity
Cytochrome P450 2D6 = Cytochrome P450 2D6 (Homo sapiens, UniProt P10635); assay: Inhibition of CYP2D6 in human liver microsomes using dextromethorphan as substrate preincubated for 20 mins followed by substrate addition measured after 30 mins in presence of NADPH by LC-MS/MS analysis
CYP2B6 [6] = target: T5, CYP2B6; assay: Inhibition of CYP2B6 in human liver microsomes assessed as enzyme-mediated metabolite formation at 3 uM using bupropion as substrate incubated for 5 mins followed by NADPH addition measured after 30 mins by LC-MS/MS analysis relative to control; parameters: scale not given: the % may be the effect or the level left; conditions: probe bupropion, read-out: Activity
Cytochrome P450 3A4 [7] = target: T6, Cytochrome P450 3A4 (Homo sapiens, UniProt P08684); assay: Inhibition of CYP3A4 in human liver microsomes using testosterone as substrate preincubated for 20 mins followed by substrate addition measured after 30 mins in presence of NADPH by LC-MS/MS analysis
CYP2A6 [8] = target: T4, CYP2A6; assay: Inhibition of CYP2A6 in human liver microsomes assessed as enzyme-mediated metabolite formation at 3 uM using coumarin as substrate preincubated for 20 mins followed by substrate addition measured after 30 mins in presence of NADPH by LC-MS/MS analysis relative to control; parameters: scale not given: the % may be the effect or the level left; conditions: probe coumarin, read-out: Activity
Cytochrome P450 3A4 [9] = target: T6, Cytochrome P450 3A4; assay: Inhibition of CYP3A4 in human liver microsomes assessed as enzyme-mediated metabolite formation using midazolam as substrate incubated for 5 mins followed by NADPH addition measured after 30 mins by LC-MS/MS analysis
CYP2B6 [10] = target: T5, CYP2B6; assay: Inhibition of CYP2B6 in human liver microsomes assessed as enzyme-mediated metabolite formation at 3 uM using bupropion as substrate preincubated for 20 mins followed by substrate addition measured after 30 mins in presence of NADPH by LC-MS/MS analysis relative to control; parameters: scale not given: the % may be the effect or the level left; conditions: probe bupropion, read-out: Activity

T1 sequence (P08684 whole entry): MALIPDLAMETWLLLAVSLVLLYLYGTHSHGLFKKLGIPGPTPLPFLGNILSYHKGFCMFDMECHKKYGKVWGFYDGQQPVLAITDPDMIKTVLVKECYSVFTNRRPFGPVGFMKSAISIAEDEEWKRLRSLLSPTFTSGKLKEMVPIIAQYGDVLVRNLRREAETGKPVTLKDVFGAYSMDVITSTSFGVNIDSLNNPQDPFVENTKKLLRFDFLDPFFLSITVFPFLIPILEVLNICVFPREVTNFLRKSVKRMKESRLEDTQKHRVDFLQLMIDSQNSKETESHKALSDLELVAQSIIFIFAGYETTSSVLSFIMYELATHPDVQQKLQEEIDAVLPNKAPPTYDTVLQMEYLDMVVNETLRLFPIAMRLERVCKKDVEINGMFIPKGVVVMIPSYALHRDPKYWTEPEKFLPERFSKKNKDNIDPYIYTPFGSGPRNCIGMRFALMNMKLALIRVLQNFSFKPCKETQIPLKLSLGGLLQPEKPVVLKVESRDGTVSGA
T6 sequence (P08684 whole entry): as above
Cytochrome P450 2D6, sequence (P10635 whole entry): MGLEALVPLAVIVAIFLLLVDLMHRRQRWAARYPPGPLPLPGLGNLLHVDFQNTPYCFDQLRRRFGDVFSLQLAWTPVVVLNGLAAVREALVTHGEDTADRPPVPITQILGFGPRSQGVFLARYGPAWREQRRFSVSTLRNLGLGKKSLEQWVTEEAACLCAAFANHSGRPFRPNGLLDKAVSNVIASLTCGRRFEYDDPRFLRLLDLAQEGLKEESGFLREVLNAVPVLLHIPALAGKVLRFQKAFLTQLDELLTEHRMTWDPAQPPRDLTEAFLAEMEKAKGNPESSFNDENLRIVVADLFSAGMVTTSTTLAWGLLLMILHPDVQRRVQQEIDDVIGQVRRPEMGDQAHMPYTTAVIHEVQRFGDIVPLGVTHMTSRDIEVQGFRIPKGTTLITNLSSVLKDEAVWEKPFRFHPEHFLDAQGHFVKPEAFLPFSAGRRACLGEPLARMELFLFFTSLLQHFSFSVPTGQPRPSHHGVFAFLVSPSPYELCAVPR

activity at 0.5 h, 10 µM (CYP3A4 [1]): 58.6% | IC50 (Cytochrome P450 1A2): 7.1 µM | activity at 0.5 h, 0.3 µM (CYP3A4 [2]): 103% | activity at 0.5 h, 0.3 µM (CYP1A2): 96.4% | activity at 0.5 h, 10 µM (CYP2A6 [3]): 81.5% | activity at 0.5 h, 1 µM (CYP2B6 [4]): 79% | activity at 0.5 h, 0.1 µM (CYP3A4 [5]): 100% | IC50 (Cytochrome P450 2D6): > 30 µM | activity at 0.5 h, 3 µM (CYP2B6 [6]): 65.7% | IC50 (Cytochrome P450 3A4 [7]): > 30 µM | activity at 0.5 h, 3 µM (CYP2A6 [8]): 104% | IC50 (Cytochrome P450 3A4 [9]): > 30 µM | activity at 0.5 h, 3 µM (CYP2B6 [10]): 77.3%
SMILES: CCCCCCCC(=O)CCc1ccc(O)c(OC)c1
